Source: patent US20240294470A1, “FRAGRANCE COMPOUNDS” (Givaudan SA, priority 2021, published 2024)

How the values were obtained:
[1] = Wash test in liquid detergent: odour intensity and quality on line-dried fabric, assessed by expert panel; conditions: for Odour intensity on dried fabric over time (FIG. 1): 0.2% by weight in liquid detergent, 40° C. wash, fresh dried, after 24 hours and after four days, scale 0 to 5; for Fragrance score after 1 day / Fragrance score after 3 days: line-dried cotton/elastane fabric, panel of 4-6 experts, scale 0 (odourless) to 5 (extremely strong)
Description: A Nitrone precursor (Sample A: (E)-2-methyl-N-(4-methylbenzyl)undecan-1-imine oxide, compound of Example 1) has been compared to the aldehyde (Sample B: 2-methyl undecanal) in a wash test. • 1) Sample preparation: 0.2% by weight of the precursor or the aldehyde have been incorporated into unperfumed liquid detergent base by magnetic stirring at room temperature for 24 h., • 2) Wash test: A 40° C. machine wash cycle was performed using 55 g of the liquid detergent sample containing the test material and odour-neutral cotton/elastan mixed fabric T-shirts. […]
Further compounds of formula (I) have been tested in liquid detergent. • 1) Sample preparation: 0.2% wt/wt of the test material was incorporated in unperfumed liquid detergent base by magnetic stirring at room temperature for 24 h. • 2) Wash test: a 40° C. machine wash cycle was performed using 55 g of the liquid detergent sample containing the test material and odour-neutral cotton/elastane mixed fabric T-shirts. The wet fabric is line-dried and odour intensity and quality are assessed by a panel of 4-6 experts after 1 and 3 days on an intensity scale of 0 (odourless) to 5 (extremely strong).

[2] = Biodegradability by manometric respirometry test (OECD guideline No. 301F); conditions: OECD 301F manometric respirometry; oxygen consumption of theory
Description: The results of the biodegradability assessment by the manometric respirometry test (OECD guideline for the testing of materials No. 301F, Paris 1992) are summarized in Table 2.
A compound can be classified biodegradable, if it reaches the pass level of 60% oxygen consumption of theory required for complete mineralization.
It is readily biodegradable, if the pass level is reached within 10 days within the 28-day period of the test. The 10-day window begins when the degree of biodegradation has reached 10%.
If the pass level is obtained after 28-day period of the test, the compound can be classified as inherently biodegradable.

[3] = Application in shampoo: odour intensity and quality on dry hair swatches, assessed by expert panel; conditions: 0.2% wt/wt in shampoo
Description: • 1) Sample preparation: 0.2% wt/wt of (E)-N-isopropyl-2-methylundecan-1-imine oxide (compound of example 9) was incorporated in unperfumed shampoo base by magnetic stirring at room temperature for 24 h. • 2) Wash test: Hair swatches were wetted with warm tap water, then 2 mL of the above prepared shampoo sample was applied to the hair swatches lathering with gloves delicately for 30 seconds. The hair swatches were rinsed with cold tap water for 20 seconds and excess water was removed by squeezing the hair swatches between two fingers. The hair swatches were left to dry in open air. Their odour intensity and quality was assessed by a panel of 4-6 experts after 1 and 2 days on an intensity scale of 0 (odourless) to 5 (extremely strong). • 3) Results: After 1 day, the fragrance score was 3.2, after 2 days, the fragrance score was 3.3.

[4] = Stability test in liquid detergent base by quantitative HPLC with UV detection; type: physicochemical
Description: Example 61: Stability test in liquid detergentThe stability of (E)-N-isopropyl-2-methylundecan-1-imine oxide (compound of Example 9) in a liquid detergent base was assessed by quantitative HPLC with UV detection.
A liquid detergent sample as prepared above containing the test substance was sampled at TO and after 30 days storage at 37° C. (300 mg diluted with 10 mL acetonitrile/high purity water 1:1), and the concentration of the precursor was assessed by quantitative HPLC-UV using an external calibration curve.

[5] = 0.2% wt/wt in liquid detergent, 40° C. machine wash

| Biodegradation in % [2] [%] | SMILES | Fragrance score after 1 day [1, 5] | Fragrance score after 3 days [1, 5] | other results |
| --- | --- | --- | --- | --- |
| 87 | CCCCCCCCCC(C)/C=[N+](/[O-])Cc1ccccc1 (stereo not shown) [Example 5, (E)-N-benzyl-2-methylundecan-1-imine oxide] | – | – | – |
| 74 | CCCCCCCCCC(C)/C=[N+](/[O-])C1CCCCC1 (stereo not shown) [Example 6, (E)-N-cyclohexyl-2-methylundecan-1-imine oxide] | – | – | – |
| 70 | CCCCCCCCCC(C)/C=[N+](/[O-])C(C)C (stereo not shown) [Example 9, (E)-N-isopropyl-2-methylundecan-1-imine oxide] | 2.4 | 3.2 | Perceived odour on dry hair [3]: clean, aldehydic; Fragrance score after 1 day ([3]; panel of 4-6 experts, scale 0 (odourless) to 5 (extremely strong), after 1 day): 3.2; Fragrance score after 2 days ([3]; panel of 4-6 experts, scale 0 (odourless) to 5 (extremely strong), after 2 days): 3.3; Stability in liquid detergent (judgement) ([4]; 30 days storage at 37° C., alkaline liquid detergent): stable; Concentration of the precursor in liquid detergent, initial ([4]; liquid detergent base, T0, HPLC-UV): 0.21 weight %; Concentration of the precursor in liquid detergent after storage ([4]; liquid detergent base, after 30 days storage at 37° C., HPLC-UV): 0.18 weight % |
| 89 | CCCCCCCCCC(C)/C=[N+](\C)[O-] (stereo not shown) [Example 13, (E)-N,2-dimethylundecan-1-imine oxide] | – | – | – |
| 75 | CCCCCCCCCC(C)/C=[N+](/[O-])CC(C)CCC (stereo not shown) [Example 15, (E)-2-methyl-N-(2-methylpentyl)undecan-1-imine oxide] | – | – | – |

More lines, now with the values behind:

| SMILES | Biodegradation in % [2] [%] | Fragrance score after 1 day [1, 5] | Fragrance score after 3 days [1, 5] | other results |
| --- | --- | --- | --- | --- |
| CCCCCCCCCC(C)/C=[N+](/[O-])Cc1ccc(C)cc1 (stereo not shown) [Example 1, (E)-2-methyl-N-(4-methylbenzyl)undecan-1-imine oxide] | 83 | – | – | Odour intensity on dried fabric over time (FIG. 1) [1]: increases with time and is the highest after four days |
| CC1=C(/C=C/C(C)=[N+](/[O-])C(C)C)C(C)(C)CCC1 [Example 10, (2E,3E)-N-isopropyl-4-(2,6,6-trimethylcyclohex-1-en-1-yl)but-3-en-2-imine oxide] | – | 2.3 | 2.2 | Odour on dry fabric ([1]; 0.2% wt/wt in liquid detergent, 40° C. machine wash, line-dried fabric, odour quality by panel): ionone |
| CCCCCCCCC/C=C/C=[N+](\[O-])Cc1ccccc1 [Example 49, (1Z,2E)-N-benzyldodec-2-en-1-imine oxide] | – | 2.9 | 3.0 | – |
| CCCCCCCCCC(C)/C=[N+](/[O-])Cc1ccc(OC)cc1 (stereo not shown) [Example 58, (E)-N-(4-methoxybenzyl)-2-methylundecan-1-imine oxide] | 76 | – | – | – |
| CCCCCCCCCC(C)C=O (stereo not shown) [Sample B, 2-methyl undecanal, reference compound] | – | – | – | Odour intensity on dried fabric over time (FIG. 1) [1]: relatively high on the freshly dried sample and decreases with time |
